Patent US7576059B2, “Peptide derivatives” (Novo Nordisk A/S, priority 1995, dated 2009)
Residues, ends and D or L forms follow the SMILES beside them.

Test: Determination of lipophilicity relative to human insulin (k′rel) by RP-HPLC
Format: physicochemical
Settings: pH 7.3
Description: The lipophilicity of peptides and peptide derivatives relative to human insulin, k′rel, was measured on a LiChrosorb RP18 (5 μm, 4×250 mm) HPLC column by isocratic elution at 40° C. using mixtures of A) 0.1 M sodium phosphate buffer, pH 7.3, containing 10% acetonitrile, and B) 50% acetonitrile in water as eluents. The elution was monitored by following the UV absorption of the eluate at 214 nm. Void time, t0, was found by injecting 0.1 mM sodium nitrate. Retention time for human insulin, tinsulin, was adjusted to at least 2t0 by varying the ratio between the A and B solutions. k′rel=(tderivative−t0)/(tinsulin−t0).

Row | Compound | lipophilicity relative to human insulin, k′rel (LiChrosorb RP18 HPLC, isocratic, 40° C., k′rel=(tderivative−t0)/(tinsulin−t0)) | lipophilicity relative to human insulin, k′rel
1 | CC(C)C[C@H](NC(=O)[C@H](Cc1ccccc1)NC(=O)CNC(=O)[C@@H](C)NC(=O)[C@@H](N)Cc1ccc(O)cc1)C(=O)N[C@@H](CCCCN)C(=O)O [H-Tyr-D-Ala-Gly-Phe-Leu-Lys-OH] (HELM PEPTIDE1{Y.[dA].G.F.L.K}$$$$V2.0) | 3.0×10^−3 | 
2 | CCCC[C@H](NC=O)C(=O)N[C@@H](CC(C)C)C(=O)N[C@@H](Cc1ccccc1)C(=O)N[C@@H](CCCC)C(=O)N[C@@H](Cc1ccc(O)cc1)C(=O)N[C@@H](CCCCN)C(=O)O [For-Nle-Leu-Phe-Nle-Tyr-Lys-OH] (HELM PEPTIDE1{[O=C[*:2]].[Nle].L.F.[Nle].Y.K}$$$$V2.0) |  | 2.3
